Test results from patent US20240190868A1, “SOS1 INHIBITORS” (Acerand Therapeutics (USA) Limited, priority 2022, published 2024).

Tested on: cellular pERK in NCI-H1975 cells (EGFR/L858R-T790M)
Experiment: pERK potency assay (In Cell ELISA)
Format: cell-based
Details: Homo sapiens, 1 h compound incubation
Excerpt: The assay measures the ability of a compound to inhibit SOS1 function in cells. SOS1 activates RAS proteins by catalyzing the conversion of RAS GDP to RAS GTP in response to receptor tyrosine kinase activation. Activation of RAS induces a sequence of cellular signaling events that result in increased phosphorylation of ERK at Threonine 202 and Tyrosine 204 (pERK). The procedure (i.e., In Cell ELISA as described below) measures the level of cellular pERK in response to a test compound in NCI-H1975 cells (EGFR/L858R-T790M).
First, NCI-H1975 cells were grown and maintained using media and procedures recommended by the ATCC. A day before compound addition, cells were plated in poly-D-lysine coated 96-well cell culture plates (Corning® BioCoat® Cat #356640) at 25000 cells/well/100 μL and grown overnight in an incubator at 37° C. with 5% CO2. A solution of a test compound was prepared with 3-fold serial dilutions in DMSO having a top concentration of 6 mM. On the day of the assay, 50 μL of a test compound dilution in media was added to each well of cell culture plate with a final compound concentration in the range of 0.001 μM to 20 μM. After addition of the compound, cells were incubated for 1 h at 37° C. with 5% CO2, after which the culture medium was removed. Cells were fixed with 4% formaldehyde in phosphate-buffered saline (PBS) and incubated at RT for 20 min. The plate was washed three times with PBST (PBS with 0.05% Tween®-20), followed by incubation with 100 μL of pre-cooled methanol at −20° C. for 20 min. After incubation, methanol was removed. The plate was again washed with PBST. Cells were then permeabilized with 100 μL/well of 0.1% Triton X-100 in PBS at RT for 20 min and then quenched with a quenching buffer (PBST containing 1% H2O2 and 0.1% sodium azide) for 20 min at RT with gentle shaking. After washing once with PBST, a blocking buffer (250 uL/well, Pierce™ Protein-Free-PBS Blocking Buffer, Cat #37572) was then added to the cells for 1-h incubation at RT, followed by an anti-pERK antibody (cell signaling, 1:1000 dilution in 5% BSA in PBST) incubation overnight at 4° C. and a secondary antibody-HRP (Jackson immunoresearch, 1:3000 dilution in 5% BSA in PBST) incubation at RT for 1 h. PBST wash was carried out after each step three times. Before the addition of a substrate (Advansta ELISABright™), the plate was washed with PBS twice to remove detergent residues. The Cellular pERK level was determined using the microplate reader (Biotek Synergy™ H1) to detect the chemiluminescence signal. IC50 was determined by fitting a 4-parameter sigmoidal concentration-response model.

Compound | IC50 [nM]
Cc1c([C@@H](C)/N=c2\nc(C)n(C)c3cnc(N4CCn5c(C(F)F)cnc5C4)cc23)cccc1C(F)(F)F [Compound 80, (R,Z)-6-(3-(difluoromethyl)-5,6-dihydroimidazo[1,2-a]pyrazin-7(8H)-yl)-1,2-dimethyl-N-(1-(2-methyl-3-(trifluoromethyl)phenyl)ethyl)pyrido[3,4-d]pyrimidin-4(1H)-imine] | < 100
COc1cc2c(cc1O[C@H]1CCOC1)/c(=N/[C@H](C)c1cccc(C(F)(F)F)c1C)nc(C)n2C [Compound 84, (Z)-7-methoxy-1,2-dimethyl-N—((R)-1-(2-methyl-3-(trifluoromethyl)phenyl)ethyl)-6-(((S)-tetrahydrofuran-3-yl)oxy)quinazolin-4(1H)-imine] | < 100
Cc1c([C@@H](C)/N=c2\nc(C)n(C)c3cnc(-c4ccn5c(C(F)(F)F)ncc5c4)cc23)cccc1C(F)(F)F [Compound 47, (R,Z)-1,2-dimethyl-N-(1-(2-methyl-3-(trifluoromethyl)phenyl)ethyl)-6-(3-(trifluoromethyl)imidazo[1,5-a]pyridin-7-yl)pyrido[3,4-d]pyrimidin-4(1H)-imine] | < 100
Cc1c(C#N)cccc1[C@@H](C)/N=c1\nc(C)n(C)c2cnc(N3CCC(F)(F)CC3)cc12 [Compound 59] | < 100
Cc1c(C#N)cccc1[C@@H](C)/N=c1\nc(C)n(C)c2cnc(N3CCC3)cc12 [Compound 71] | < 100
CC(=O)N1CCC(O)(c2cc3/c(=N/[C@H](C)c4cccc(C(F)(F)F)c4C)ncn(C)c3c(=O)n2C)CC1 [Compound 81, (R,Z)-6-(1-acetyl-4-hydroxypiperidin-4-yl)-1,7-dimethyl-4-((1-(2-methyl-3-(trifluoromethyl)phenyl)ethyl)imino)-1,7-dihydropyrido[3,4-d]pyrimidin-8(4H)-one] | < 100
CC(=O)N1CC=C(c2cc3/c(=N/[C@H](C)c4cccc(C(F)(F)F)c4C)nc(C4CC4)n(C)c3cn2)CC1 [Compound 3] | < 100
Cc1c(C#N)cccc1[C@@H](C)/N=c1\nc(C)n(C)c2cnc(N3CC(F)C3)cc12 [Compound 69] | < 100
COc1nc(C2(F)CCN(C(C)=O)CC2)cc2/c(=N/[C@H](C)c3cccc(C(F)(F)F)c3C)ncn(C)c12 [Compound 23, (R,Z)-1-(4-fluoro-4-(8-methoxy-1-methyl-4-((1-(2-methyl-3-(trifluoromethyl)phenyl)ethyl)imino)-1,4-dihydropyrido[3,4-d]pyrimidin-6-yl)piperidin-1-yl)ethan-1-one] | < 100
CC(=O)N1CC=C(c2cc3/c(=N/[C@H](C)c4cccc(C(F)(F)F)c4C)ncn(C4CC4)c3cn2)CC1 [Compound 14] | < 100
Cc1c(C#N)cccc1[C@@H](C)/N=c1\nc(C)n(C)c2ccc(C3=CCOCC3)cc12 [Compound 38] | < 100
Cc1c(C#N)cccc1[C@@H](C)/N=c1\nc(C)n(C)c2cnc(N3CCOC[C@H]3C)cc12 [Compound 74] | < 100
Cc1c([C@@H](C)/N=c2\nc(C)n(C)c3cnc(C4(C(F)F)CC4)cc23)cccc1C(F)(F)F [Compound 18, (R,Z)-6-(1-(difluoromethyl)cyclopropyl)-1,2-dimethyl-N-(1-(2-methyl-3-(trifluoromethyl)phenyl)ethyl)pyrido[3,4-d]pyrimidin-4(1H)-imine] | < 100
Cc1c(C#N)cccc1[C@@H](C)/N=c1\nc(C)n(C)c2cnc(N3CCO[C@H](C)C3)cc12 [Compound 61] | < 100
CC(=O)N1CCC(O)(c2cc3/c(=N/[C@H](C)c4cccc(C(F)F)c4F)nc(C)n(C)c3cn2)CC1 [Compound 5, (R,Z)-1-(4-(4-((1-(3-(difluoromethyl)-2-fluorophenyl)ethyl)imino)-1,2-dimethyl-1,4-dihydropyrido[3,4-d]pyrimidin-6-yl)-4-hydroxypiperidin-1-yl)ethan-1-one] | < 100
CC(=O)N1CCN(c2cc3/c(=N/[C@H](C)c4cccc(C(F)(F)F)c4C)nc(C)n(C)c3cn2)C(=O)C1 [Compound 68] | < 100
Cc1c(C#N)cccc1[C@@H](C)/N=c1\nc(C)n(C)c2cnc(N3CCC(C)(O)CC3)cc12 [Compound 67] | < 100
Cc1c(C#N)cccc1[C@@H](C)/N=c1\nc(C)n(C)c2cnc(N3CC(C)(O)C3)cc12 [Compound 73] | < 100

Compound | IC50 [nM]
COC1CN(c2cc3/c(=N/[C@H](C)c4cccc(C#N)c4C)nc(C)n(C)c3cn2)C1 [Compound 76] | < 100
COc1nc(C2(O)CCN(C(C)=O)CC2)cc2/c(=N/[C@H](C)c3cccc(C(F)(F)F)c3C)ncn(C)c12 [Compound 22, (R,Z)-1-(4-hydroxy-4-(8-methoxy-1-methyl-4-((1-(2-methyl-3-(trifluoromethyl)phenyl)ethyl)imino)-1,4-dihydropyrido[3,4-d]pyrimidin-6-yl)piperidin-1-yl)ethan-1-one] | < 100
CC(=O)N1CCC(F)(c2cc3/c(=N/[C@H](C)c4cccc(C(F)(F)F)c4C)nc4n(c3cn2)CCC4)CC1 [Compound 27, (R,Z)-1-(4-fluoro-4-(5-((1-(2-methyl-3-(trifluoromethyl)phenyl)ethyl)-imino)-5,7,8,9-tetrahydropyrido[4,3-e]pyrrolo[1,2-a]pyrimidin-3-yl)piperidin-1-yl)ethan-1-one] | < 100
CC(=O)N1CC=C(c2cc3/c(=N/[C@H](C)c4cccc(C(F)(F)F)c4C)nc(C)n(C(C)C)c3cn2)CC1 [Compound 9] | < 100
CC(=O)N1CCC(F)(c2cnc3c(c2)/c(=N/[C@H](C)c2cccc(C(F)(F)F)c2C)nc(C)n3C)CC1 [Compound 13] | < 100
CC(=O)N1CCC(F)(c2cc3/c(=N/[C@H](C)c4cccc(C#N)c4C)nc4n(c3cn2)CCC4)CC1 [Compound 30] | < 100
Cc1c(C#N)cccc1[C@@H](C)/N=c1\nc(C)n(C)c2cnc(N3CC4CC4C3)cc12 (some centres unmarked) [Compound 72] | < 100
CC(=O)N1CC=C(c2cc3/c(=N/[C@H](C)c4cccc(C(F)(F)F)c4C)nc4n(c3cn2)CCO4)CC1 [Compound 32, (R,Z)-1-(4-(5-((1-(2-methyl-3-(trifluoromethyl)phenyl)ethyl)imino)-8,9-dihydro-5H-oxazolo[3,2-a]pyrido[4,3-e]pyrimidin-3-yl)-3,6-dihydropyridin-1(2H)-yl)ethan-1-one] | < 100
CC(=O)NCC#Cc1cc2/c(=N/[C@H](C)c3cccc(C(F)F)c3F)nc(C)n(C)c2cn1 [Compound 85, (R,Z)—N-(3-(4-((1-(3-(difluoromethyl)-2-fluorophenyl)ethyl)imino)-1,2-dimethyl-1,4-dihydropyrido[3,4-d]pyrimidin-6-yl)prop-2-yn-1-yl)acetamide] | < 100
Cc1c([C@@H](C)/N=c2\nc(C)n(C)c3cnc(N4CCC5(CC4)CC5)cc23)cccc1C(F)(F)F [Compound 51] | < 100
CC(=O)N1CCN(c2cc3/c(=N/[C@H](C)c4cccc(C#N)c4C)nc(C)n(C)c3cn2)CC1 [Compound 56] | < 100
CC(=O)N1CC=C(c2cc3/c(=N/[C@H](C)c4cccc(C(F)(F)F)c4C)ncn(C)c3c(=O)n2C)CC1 [Compound 82, (R,Z)-6-(1-acetyl-1,2,3,6-tetrahydropyridin-4-yl)-1,7-dimethyl-4-((1-(2-methyl-3-(trifluoromethyl)phenyl)ethyl)imino)-1,7-dihydropyrido[3,4-d]pyrimidin-8(4H)-one] | < 100
Cc1c(C#N)cccc1[C@@H](C)/N=c1\nc(C)n(C)c2cnc(C3=CCOCC3)cc12 [Compound 41] | < 100
Cc1c([C@@H](C)/N=c2\nc3n(c4cnc(C5(C(F)F)CC5)cc24)CCC3)cccc1C(F)(F)F [Compound 31, (R,Z)-3-(1-(difluoromethyl)cyclopropyl)-N-(1-(2-methyl-3-(trifluoromethyl)phenyl)ethyl)-8,9-dihydropyrido[4,3-e]pyrrolo[1,2-a]pyrimidin-5(7H)-imine] | < 100
Cc1c([C@@H](C)/N=c2\nc(C)n(C)c3cnc(C4=CCOCC4)cc23)cccc1C(F)(F)F [Compound 39] | < 100
C#C[C@@H](/N=c1\ncn(C)c2cc(=O)n(C3(C(F)F)CC3)cc12)c1cccc(C(F)(F)F)c1C [Compound 21, (R,Z)-6-(1-(difluoromethyl)cyclopropyl)-1-methyl-4-((1-(2-methyl-3-(trifluoromethyl)phenyl)prop-2-yn-1-yl)imino)-4,6-dihydropyrido[4,3-d]pyrimidin-7(1H)-one] | < 100
Cc1c([C@@H](C)/N=c2\nc3n(c4cnc(N5CCOCC5)cc24)CCC3)cccc1C(F)(F)F [Compound 77] | < 100
